In patent US8067424B2, “Selective inhibitors for cyclin-dependent kinases” (Emory University, priority 2007, dated 2011):
Like-named read-outs stand apart in the source and are kept apart here.

What was measured:
MCF-7 tumors = assay: MCF-7 tumor growth in nude mice, BS-181 i.p.; assay type: in vivo, nu/nu-BALB/c athymic nude mice; details: i.p. twice daily, 14 days
Text: This example illustrates that BS-181 is capable of inhibiting MCF-7 tumor growth in nude mice. The following protocol was used in these mouse xenograft experiments. Female, 7-week-old, nu/nu-BALB/c athymic nude mice were purchased from Harlan Olac Ltd. The animals were housed in isolated ventilator cages (IVC) in a 12-h light/dark cycle. The animals received sterilized water and sterile rodent food ad libitum. All procedures were approved by the CBS, Imperial College London Ethics Committee and were covered by a Government Home Office project license for these specific studies. Before inoculation of animal with cells, a 0.72 mg 17β Estradiol 60-day release pellet was implanted subcutaneously (Innovative Research of America, USA). For insertion, animals were anaesthetised, an incision was made to the flank of the animals under aseptic conditions and pellets were implanted. The wound was closed with stainless steel sutures. MCF-7 cells (5×10^6 cells) were injected subcutaneously in not more than 0.1 ml volume into the flank of the animals. Tumor measurements were performed twice per week, and volumes were calculated using the formula ½ [length (mm)]×[width (mm)]^2. […] Throughout the 14-day treatment period animal weights were determined each day and tumor volume every 48 hours.

RPMI-8226 [1] = system: RPMI-8226
LOX IMVI = details: for Mean Optical Densities / Percent Growth: LOX IMVI
HS 578T = details: for Mean Optical Densities / Percent Growth: HS 578T
RPMI-8226 [2] = assay: cells; details: Homo sapiens
HT29 = assay: cells; details: Homo sapiens
OVCAR-4 = assay: cells; details: Homo sapiens
SN12C = assay: cells; details: Homo sapiens
BT-549 = assay: cells; details: Homo sapiens
[3] = RPMI-8226, log10 concentration −4.0
[4] = RPMI-8226, log10 concentration −5.0
[5] = RPMI-8226, log10 concentration −6.0
[6] = RPMI-8226, log10 concentration −7.0
[7] = RPMI-8226, log10 concentration −8.0
[8] = NCI-H460, log10 concentration −4.0
[9] = NCI-H460, log10 concentration −5.0
[10] = NCI-H460, log10 concentration −6.0
[11] = NCI-H460, log10 concentration −7.0
[12] = NCI-H460, log10 concentration −8.0
[13] = NCI-H522, log10 concentration −4.0
[14] = NCI-H522, log10 concentration −5.0
[15] = NCI-H522, log10 concentration −6.0
[16] = NCI-H522, log10 concentration −7.0
[17] = NCI-H522, log10 concentration −8.0
[18] = SK-MEL-28, log10 concentration −4.0
[19] = SK-MEL-28, log10 concentration −5.0
[20] = SK-MEL-28, log10 concentration −6.0
[21] = SK-MEL-28, log10 concentration −7.0
[22] = SK-MEL-28, log10 concentration −8.0
[23] = UACC-257, log10 concentration −4.0
[24] = UACC-257, log10 concentration −5.0
[25] = UACC-257, log10 concentration −6.0
[26] = UACC-257, log10 concentration −7.0
[27] = UACC-257, log10 concentration −8.0
[28] = DU-145, log10 concentration −4.0
[29] = DU-145, log10 concentration −5.0
[30] = DU-145, log10 concentration −6.0
[31] = DU-145, log10 concentration −7.0
[32] = DU-145, log10 concentration −8.0

## CC(C)c1cnn2c(NCc3ccccc3)cc(NCCCCCCCN)nc12 [BS-181]
MCF-7 tumors
  Change in animal weight: nearly constant
MCF-7 tumors; different doses
  Increase in tumor volume relative to day one: increased more slowly with increasing dosage

## CC(C)c1cnn2c(NCc3ccccc3)cc(N[C@@H](CO)[C@H](O)CO)nc12 [ICEC0318, (3S)-3-(7-(Benzylamino)-3-isopropylpyrazolo[1,5-a]pyrimidin-5-ylamino)butane-1,2,4-triol]
RPMI-8226 [1]; RPMI-8226 (Leukemia)
  TGI: >1.00E−4
RPMI-8226 [1]; [3]
  Mean Optical Densities: 0.249
  Percent Growth: 7%
RPMI-8226 [1]; [4]
  Mean Optical Densities: 0.302
  Percent Growth: 18%
RPMI-8226 [1]; [5]
  Mean Optical Densities: 0.311
  Percent Growth: 19%
RPMI-8226 [1]; [6]
  Mean Optical Densities: 0.556
  Percent Growth: 67%
RPMI-8226 [1]; [7]
  Mean Optical Densities: 0.595
  Percent Growth: 75%
NCI-H460; NCI-H460 (Non-Small Cell Lung Cancer)
  TGI: 1.71E−5
NCI-H460; [8]
  Mean Optical Densities: 0.094
  Percent Growth: −15%
NCI-H460; [9]
  Mean Optical Densities: 0.158
  Percent Growth: 5%
NCI-H460; [10]
  Mean Optical Densities: 0.181
  Percent Growth: 7%
NCI-H460; [11]
  Mean Optical Densities: 0.919
  Percent Growth: 80%
NCI-H460; [12]
  Mean Optical Densities: 1.138
  Percent Growth: 102%
NCI-H522; NCI-H522 (Non-Small Cell Lung Cancer)
  TGI: 2.13E−6
NCI-H522; [13]
  Mean Optical Densities: 0.741
  Percent Growth: −17%
NCI-H522; [14]
  Mean Optical Densities: 0.640
  Percent Growth: −29%
NCI-H522; [15]
  Mean Optical Densities: 1.075
  Percent Growth: 14%
NCI-H522; [16]
  Mean Optical Densities: 2.156
  Percent Growth: 99%
NCI-H522; [17]
  Mean Optical Densities: 2.185
  Percent Growth: 101%
LOX IMVI; LOX IMVI (Melanoma)
  TGI: 1.46E−5
LOX IMVI; log10 concentration −4.0
  Mean Optical Densities: 0.224
  Percent Growth: −19%
LOX IMVI; log10 concentration −5.0
  Mean Optical Densities: 0.328
  Percent Growth: 4%
LOX IMVI; log10 concentration −6.0
  Mean Optical Densities: 0.326
  Percent Growth: 4%
LOX IMVI; log10 concentration −7.0
  Mean Optical Densities: 1.208
  Percent Growth: 64%
LOX IMVI; log10 concentration −8.0
  Mean Optical Densities: 1.614
  Percent Growth: 92%
SK-MEL-28; SK-MEL-28 (Melanoma)
  TGI: 8.70E−7
SK-MEL-28; [18]
  Mean Optical Densities: 0.114
  Percent Growth: −62%
SK-MEL-28; [19]
  Mean Optical Densities: 0.198
  Percent Growth: −34%
SK-MEL-28; [20]
  Mean Optical Densities: 0.284
  Percent Growth: −6%
SK-MEL-28; [21]
  Mean Optical Densities: 0.733
  Percent Growth: 85%
SK-MEL-28; [22]
  Mean Optical Densities: 0.816
  Percent Growth: 102%
UACC-257; UACC-257 (Melanoma)
  TGI: 3.88E−5
UACC-257; [23]
  Mean Optical Densities: 0.848
  Percent Growth: −4%
UACC-257; [24]
  Mean Optical Densities: 0.933
  Percent Growth: 5%
UACC-257; [25]
  Mean Optical Densities: 0.948
  Percent Growth: 7%
UACC-257; [26]
  Mean Optical Densities: 1.891
  Percent Growth: 100%
UACC-257; [27]
  Mean Optical Densities: 1.906
  Percent Growth: 102%
DU-145; DU-145 (Prostate Cancer)
  TGI: >1.00E−4
DU-145; [28]
  Mean Optical Densities: 0.204
  Percent Growth: 3%
DU-145; [29]
  Mean Optical Densities: 0.250
  Percent Growth: 12%
DU-145; [30]
  Mean Optical Densities: 0.277
  Percent Growth: 17%
DU-145; [31]
  Mean Optical Densities: 0.688
  Percent Growth: 95%
DU-145; [32]
  Mean Optical Densities: 0.732
  Percent Growth: 103%
HS 578T; HS 578T (Breast Cancer)
  TGI: 8.54E−7
HS 578T; log10 concentration −4.0
  Mean Optical Densities: 0.314
  Percent Growth: −22%
HS 578T; log10 concentration −5.0
  Mean Optical Densities: 0.352
  Percent Growth: −12%
HS 578T; log10 concentration −6.0
  Mean Optical Densities: 0.373
  Percent Growth: −7%
HS 578T; log10 concentration −7.0
  Mean Optical Densities: 0.803
  Percent Growth: 95%
HS 578T; log10 concentration −8.0
  Mean Optical Densities: 0.867
  Percent Growth: 110%
RPMI-8226 [2]; RPMI-8226
  GI50: 0.227 µM
RPMI-8226 [2]; RPMI-8226, read-out: LC50
  CC50: > 100 µM
HT29; HT-29
  GI50: 0.336 µM
HT29; HT-29, read-out: LC50
  CC50: > 100 µM
OVCAR-4; OVCAR-4
  GI50: 0.343 µM
OVCAR-4; OVCAR-4, read-out: LC50
  CC50: > 100 µM
SN12C
  GI50: 0.327 µM
SN12C; read-out: LC50
  CC50: > 100 µM
BT-549; BT-549
  GI50: 0.258 µM
BT-549; BT-549, read-out: LC50
  CC50: > 100 µM
